The IC50 is the concentration that inhibits the measured activity by half.

Here are results for 18 compounds from patent publication US9353152B2, “Induction of the mitochondrial permeability transition” (NewSouth Innovations Pty Limited, priority 2002, dated 2016).

Data set [1] addresses T1, MPTP (Rattus norvegicus, UniProt Q09073).
T1 construct: Mitochondria were isolated from the livers of ˜250 g male Wistar rats; from tissue; host or cells: rat liver mitochondria (male Wistar rats)
T1 sequence (Q09073 2-298 limits assumed): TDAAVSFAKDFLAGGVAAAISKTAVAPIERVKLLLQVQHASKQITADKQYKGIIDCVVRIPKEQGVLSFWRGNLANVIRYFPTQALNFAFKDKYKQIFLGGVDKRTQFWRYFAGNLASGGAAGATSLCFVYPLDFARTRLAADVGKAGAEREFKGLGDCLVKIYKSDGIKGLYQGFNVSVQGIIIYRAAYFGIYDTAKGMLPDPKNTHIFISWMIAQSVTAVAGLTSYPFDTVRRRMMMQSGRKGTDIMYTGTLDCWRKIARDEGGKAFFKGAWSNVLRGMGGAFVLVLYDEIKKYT
The data set is described as follows: Mitochondria swelling assay (MPT induction, decrease in light scattering at 520 nm). It is filed as biochemical. The conditions noted are these: for blocking of the effect of GSAO on pore opening: 100 μM GSAO with 3 mM Mg^2+, 100 μM EGTA, 10 μM BKA, 5 μM CsA or 8 mM ADP; for swelling of isolated rat liver mitochondria: GSAO 25-200 μM, GSAA, GSCA 100 μM, 60 min.

The target in data set [2] is T2, mitochondrial permeability transition pore (Rattus norvegicus, UniProt Q09073).
T2 construct: Mitochondria were isolated from the livers of ˜250 g male Wistar rats; from tissue; host or cells: rat liver mitochondria (male Wistar rats)
T2 sequence (Q09073 2-298 limits assumed): T1 sequence (Q09073 2-298 limits assumed)
It counts as biochemical.

The subject of data set [3] is BAE cells.
For data set [4], the target named is T1, MPTP. It is filed as biochemical.
For data set [5], the system named is BAE cells. The data set is described as follows: cells. The conditions noted are these: Bos taurus, read-out: IC50 (μM)*.
Data set [6] has as its system BAE cells. The data set is described as follows: Cell viability assay, attached cells (methylene blue), proliferating or growth-quiescent cells. It counts as cell-based, bovine.
Experimental: BAE or HMEC-1 cells were seeded at a density of 10^4 cells per cell into 96 well plates and allowed to adhere overnight and then treated as indicated.
In the next data set the test system is CAM angiogenesis. Put plainly: Chick chorioallantoic membrane (CAM) angiogenesis assay. The conditions noted are these: 5, 10 or 50 μg per pellet, 48 h. It counts as in vivo. Here is the method:
Fertilised 3 day-old white Leghorn eggs (Spafas, Norwich, Conn.) were cracked, the embryos with intact yolks placed in 20×100 mm petri dishes and incubated for 3 days at 37° C. and 3% CO2 (Folkman, 1985). Methylcellulose (Fisher Scientific, Fair Lawn, N.J.) discs containing 5, 10 or 50 μg of either GSAA or GSAO were then applied to the CAM of individual embryos and incubated for 48 h at 37° C. and 3% CO2. The discs were made by desiccation of GSAA or GSAO in 10 μl of 0.45% methycellulose on teflon rods. The CAMs were observed using a stereomicroscope and scored for no obvious affect or inhibition of CAM angiogenesis as defined by avascular zones. On some occasions CAM blood vessels were injected with India ink and photographed.

The subject of another data set is BxPC-3 tumours. Put plainly: Primary tumour growth assay. It counts as in vivo, SCID mice. The conditions noted are these: 10 mg/kg/day s.c., all experiments (BxPC-3, HT1080, LLC). The procedure:
(§1) Female 7 to 9 week old SCID or C57Bl6/J mice were used (Massachusetts General Hospital, Boston, Mass.). Mice were held in groups of 3 to 5 at a 12 hour day and night cycle and were given animal chow and water ad libidum. SCID or C57Bl6/J mice were anaesthetised by inhalation of isoflurane, the dorsal skin shaved and cleaned with ethanol, and a suspension of 2.5×10^6 BxPC-3, HT1080 or LLC cells in 0.2 mL of PBS, or saline for LLC cells, was injected S.C. in the proximal midline. LLC cells were prepared according to O'Reilly et al. (1997). Tumour volume was calculated using the relationship, a·b^2·0.52, where a is the longest and b the shortest diameter.

A short description of data set [7]: Tolerability in tumour-bearing mice. It counts as in vivo, SCID or C57Bl6/J mice. Here is the method:
as §1

The subject of data set [8] is BAE cells. It is filed as cell-based, bovine.

“Also recorded” adds a separate entry of the source. Read-outs that look alike come from different tables or passages of the source. Residues, ends and D or L forms follow the SMILES beside them. *: point of attachment. X2 = O=C(C*)Nc1ccc([As](O)O)cc1; X1 = O=C(C*)Nc1ccccc1[As](O)O

As for `[Mg+2]` [Mg^2+], the “blocking of the effect of GSAO on pore opening” value (from here on “blocking of the effect of GSAO”) on MPTP [1] is “blocked”. In data set [2] (FIG. 18 as printed), the “blocking of GSAO-dependent swelling” value was “blocked”.
Regarding `O=C(O)CCSCC(=O)Nc1ccc([As](O)O)cc1` [Compound 11, 3-S—(CH2CONHC6H4-p-As{OH}2)-1-propionic acid], the “Fold Increase” value with BAE cells [3] is given as 0.05. Moreover, in the data set with BAE cells [3] (read-out: IC50 (μM)*), the IC50 was 170 µM. The “MPTP Swelling Rate Increase/GSAO* Mean” value on MPTP [4] came to 1.3.
In the same order, the values of `N=C(N)NCCC[C@H](N)C(=O)NCC(=O)N[C@@H](CC(=O)O)C(=O)N[C@@H](CSCC(=O)Nc1ccc([As](O)O)cc1)C(=O)O` [Compound 6, H-Arg-Gly-Asp-Cys(CH2CONHC6H4-p-As{OH}2)—OH] (H-RGDC(X2)-OH) are 0.45, 18.2 µM and 4.5.
As to `NCC(=O)NCC(=O)NC(CSCC(=O)Nc1ccc([As](O)O)cc1)C(=O)O` (stereo not drawn) [Compound 7, H-Gly-Gly-Cys(CH2CONHC6H4-p-As{OH}2)—OH], the concentration for half-maximal inhibition (IC50) with BAE cells [5] amounted to 19 µM. Moreover, the “Fold Increase” value in the data set on BAE cells [3] is listed as 0.44. Also, the “MPTP Swelling Rate Increase/GSAO* Mean” value on MPTP [4] was determined as 2.2.
Take `Nc1ncnc2c1ncn2[C@@H]1O[C@H](COP(=O)(O)OP(=O)(O)O)[C@@H](O)[C@H]1O` [ADP]: the “blocking of the effect of GSAO” value at MPTP [1] is listed as “blocked”. The “blocking of the effect of o-GSAO on pore opening” value in data set [2] is “blocked”.
As to `O=C(O)CCC(NC(=O)NC(CSCC(=O)Nc1ccc([As](O)O)cc1)C(=O)O)C(=O)O` (stereo not drawn) [Compound 3, retro-HO-Cys-(CH2CONHC6H4-p-As{OH}2)-carbonyl-Glu-OH], the “Fold Increase” value in the data set on BAE cells [3] came to 0.07. In addition, the IC50 in the data set with BAE cells [3] (read-out: IC50 (μM)*) stood at 122 µM. Also, the “MPTP Swelling Rate Increase/GSAO* Mean” value at MPTP [4] came to 2.4.
Consider `O=C(CSCCCS(=O)(=O)O)Nc1ccc([As](O)O)cc1` [Compound 10, 3-S—(CH2CONHC6H4-p-As{OH}2)-1-propanesulfonic acid], for which the “Fold Increase” value in the data set on BAE cells [3] is listed as 0.21. In the data set on BAE cells [3] (read-out: IC50 (μM)*), the IC50 is 39 µM. Moreover, the “MPTP Swelling Rate Increase/GSAO* Mean” value at MPTP [4] stood at 2.0.
`CC(C)C(N)C(=O)NC(C(=O)NC(CSCC(=O)Nc1ccccc1[As](O)O)C(=O)NCC(=O)O)C(C)O` (stereo not drawn) [Compound 23, H-Val-Thr-Cys(CH2CONHC6H4-o-As{OH}2)-Gly-OH] (H-VTC(X1)G-OH; configuration not given here): in the data set on BAE cells [3], the “Fold Increase” value is reported as 19.8 and the “times more active than the corresponding p-arsenoxide analogue” value was “approximately 20 times”. For the same compound, the 50% inhibitory concentration (IC50) in the data set on BAE cells [3] (read-out: IC50 (μM)*) worked out at 0.42 µM. The “MPTP Swelling Rate Increase/GSAO* Mean” value on MPTP [4] turned out to be 5.4.
In the same order, the values of `NCC(=O)NCC(=O)N[C@@H](CSCC(=O)Nc1ccccc1[As](O)O)C(=O)O` [Compound 22, H-Gly-Gly-Cys(CH2CONHC6H4-o-As{OH}2)—OH] are 46.9, “approximately 106 times”, 0.18 µM and 6.9.
Take `O=C(O)Cn1nnnc1SCC(=O)Nc1ccc([As](O)O)cc1` [Compound 21, 5-S—(CH2CONHC6H4-p-As{OH}2)-1-tetrazolacetic acid]: the IC50 with BAE cells [5] worked out at 51.3 µM. In addition, in the data set on BAE cells [3], the “Fold Increase” value worked out at 0.16. Besides, on MPTP [4], the “MPTP Swelling Rate Increase/GSAO* Mean” value is 2.8.
In the case of `N[C@@H](CCC(=O)N[C@@H](CSCC(=O)Nc1ccc(C(=O)O)cc1)C(=O)NCC(=O)O)C(=O)O` [GSCA, 4-(N—((S-glutathionyl)acetyl)amino)benzoic acid], the “swelling of isolated rat liver mitochondria” value at MPTP [1] is reported as “without effect”. Further, the “effect on the viability of proliferating BAE cells” value in the data set with BAE cells [6] (concentrations up to 1.0 mM) was “no significant effect”.
`O=C(CS[C@@H]1O[C@H](CO)[C@@H](O)[C@H](O)[C@H]1O)Nc1ccc([As](O)O)cc1` [Compound 14, 1-S—(CH2CONHC6H4-p-As{OH}2)-β-D-glucose]: in the data set on BAE cells [3], the “Fold Increase” value is 0.08. Moreover, the IC50 in the data set with BAE cells [3] (read-out: IC50 (μM)*) amounted to 106 µM. Further, on MPTP [4], the “MPTP Swelling Rate Increase/GSAO* Mean” value is 1.1.
Consider `CO[C@H](C/C=C\C=C\CC/C=C/C[C@H](C)/C=C/C(=C\C(=O)O)CC(=O)O)/C(C)=C\C=C(/C)C(=O)O` [BKA, Bonkrekic acid], for which, on MPTP [1], the “blocking of the effect of GSAO” value was “blocked”.
On to `CC(C)C(N)C(=O)NC(C(=O)NC(CSCC(=O)Nc1ccc([As](O)O)cc1)C(=O)NCC(=O)O)C(C)O` (stereo not drawn) [Compound 8, H-Val-Thr-Cys(CH2CONHC6H4-p-As{OH}2)-Gly-OH] (H-VTC(X2)G-OH; configuration not given here), for which the half-inhibitory concentration (IC50) in the data set with BAE cells [5] is 8.8 µM. Besides, the “Fold Increase” value in the data set with BAE cells [3] was found to be 0.95. Moreover, on MPTP [4], the “MPTP Swelling Rate Increase/GSAO* Mean” value was 2.1.
Consider `O=C(O)CC(SCC(=O)Nc1ccc([As](O)O)cc1)C(=O)O` (stereo not drawn) [Compound 13, 1-S—(CH2CONHC6H4-p-As{OH}2)-mercaptosuccinic acid], for which the “Fold Increase” value in the data set with BAE cells [3] was determined as 0.19. In the data set on BAE cells [3] (read-out: IC50 (μM)*), the IC50 was determined as 43.3 µM. Also, at MPTP [4], the “MPTP Swelling Rate Increase/GSAO* Mean” value is 1.6.
Consider `O=C(O)CN(CCOCCOCCN(CC(=O)O)CC(=O)O)CC(=O)O` [EGTA, ethylene glycol-bis(beta-aminoethyl ether)-N,N,N′N′-tetraacetic acid], for which the “blocking of the effect of GSAO” value at MPTP [1] is given as “blocked”. In addition, the “blocking of GSAO-dependent swelling” value in data set [2] is on record as “blocked”.
Consider `N[C@@H](CCC(=O)N[C@@H](CSCC(=O)Nc1ccc([As](=O)(O)O)cc1)C(=O)NCC(=O)O)C(=O)O` [GSAA, 4-(N—((S-glutathionyl)acetyl)amino)-benzenearsonic acid, reference compound], for which the “inhibition of CAM angiogenesis (avascular zones)” value in the data set on CAM angiogenesis is given as “did not inhibit CAM angiogenesis; also recorded: no affects”. Moreover, in the data set with BxPC-3 tumours, the “inhibition of the rate of tumour growth compared to vehicle alone” value is reported as < 20%. The “swelling of isolated rat liver mitochondria” value at MPTP [1] is “without effect”. The “effect on the viability of proliferating BAE cells” value in the data set with BAE cells [6] is on record as “no significant effect”. Also, in data set [7] (10 mg/kg/day s.c.), the “adverse affects of administration” value is “no apparent adverse affects”; the “morphological changes in the heart, lungs, liver, kidneys, and spleen” value was “no morphological changes”. The “average mice weights over the course of the experiments” value in [7] (GSAO versus GSAA treatment groups) is “the same”. Besides, the “effect on O2^− or H2O2 levels” value in the data set with BAE cells [8] is given as “no effect”.
`NC(=O)CCC(NC(=O)C(Cc1ccccc1)NC(=O)C(Cc1ccc(O)cc1)NC(=O)C(N)CSCC(=O)Nc1ccc([As](O)O)cc1)C(=O)NC(CC(N)=O)C(=O)NC(CSCC(=O)Nc1ccc([As](O)O)cc1)C(=O)O` (stereo not drawn) [Compound 9, H-Cys-(CH2CONHC6H4-p-As{OH}2)-Tyr-Phe-Gln-Asn-Cys-(CH2CONHC6H4-p-As{OH}2)—OH] (H-C(X2)YFQNC(X2)-OH; configuration not given here): the “Fold Increase” value in the data set with BAE cells [3] was determined as 0.64. For the same compound, inhibition with BAE cells [3] (72 h) was half-maximal at 12.9 µM (IC50).
